Where a SMILES comes first, the peptide text is derived from it. Bridges are numbered along the chain shown (N, C = ends).
Key:
[1] = test system: mouse acetate acid writhing model; assay: Mouse acetate acid writhing model; type: in vivo, C57BL/6 mice
Description: Seventy SPF-grade healthy C57BL/6 mice, half male and half female, weighing 22-25 g and 8-10 weeks old, are randomly selected. Seventy C57BL/6 mice are weighed and numbered in ascending order of body weight (No. S1-S70). The mice are randomly divided into seven groups in terms of the randomized numerical table method, which are the saline group and the experimental groups, among which the experimental groups include the PPN-01 group, the PPN-04 group, the PPN-06 group, the PPN-11 group, the PPN-12 group, and the PPN-16 group. The dosing concentration (i.e., the concentration of added polypeptides PPN-01, PPN-04, PPN-06, PPN-11, PPN-12, and PPN-16) in each group is 10 mg/kg, with 10 mice in each group.
(§1) Saline Group: 10 healthy mice are routinely reared for one week; the saline is intraperitoneally injected once daily at a concentration of 10 ml/kg for 7 consecutive days; 15 min after the last injection is finished, 0.7% glacial acetic acid (10 ml/kg) is intraperitoneally injected; and each mouse is observed for their writhing behaviors.
Experimental Group: 10 healthy mice are routinely reared for one week; 10 ml/kg of different polypeptides are injected intraperitoneally at a concentration of 0.1 mL/10 g once daily for 7 consecutive days; 15 min after the last injection is finished, 0.7% glacial acetic acid (10 ml/kg) is intraperitoneally injected; and each mouse is observed for their behaviors in writhing.
During the above experiments, the time of first writhing (writhing latency) and the number of writhing in each mouse within 15 min are recorded immediately after the injection of glacial acetic acid solution in each group of mice. When behavioral responses such as inward concavity of the abdomen, extension of the torso and hind limbs, and elevation of the buttocks occur, it is considered to be a complete writhing response, and the results are shown in Table 3 and FIG. 6.
Forty SPF-grade healthy C57BL/6 mice, half male and half female, weighing 22-25 g and 8-10 weeks old, are randomly selected. Forty C57BL/6 mice are weighed and numbered in ascending order of body weight (No. 1 to No. 40). The mice are randomly divided into five groups according to the randomized numerical table method, namely, the saline group, the low-concentration group (2.5 mg/kg), the medium-concentration group (10 mg/kg), the high-concentration group (40 mg/kg), and the diclofenac sodium group (30 mg/kg), with eight mice in each group.
as §1, with “Group: 8” for “Group: 10”, “their behaviors in writhing. […]” for “their writhing behaviors.”

Nav1.4 = target: T1, Nav1.4 (Homo sapiens, UniProt P35499); assay: Whole-cell patch clamp on Nav1.4 overexpressing HEK293 cells; type: cell-based; conditions: 300 nM; −90 mV to +40 mV, 30 ms; n=5
T1 construct: expressed in transfected cells; host or cells: HEK293
Protocol: The effect of the polypeptide PPN-01 provided in Example 1 on voltage gated sodium channels is studied using the glass microelectrodes prepared as described above in Example 2 and employing the whole-cell membrane clamp techniques. The specific operations are as follows:
1. Firstly, internal electrode solution is placed on ice to defrost; after defrosting, an appropriate amount of internal electrode solution is drawn up with a 1 ml syringe; and after a homemade filler is applied to the tip end of the syringe, the air in the tube is emptied to fill the entire filler with internal electrode solution. Secondly, internal electrode solution in the filler is poured into the glass microelectrode from a rear part thereof by using the rear part perfusion method; internal electrode solution is slowly injected into the glass microelectrode; and the amount of perfusion is generally ⅓ to ½ of a length of the glass microelectrode (it is necessary to ensure that the silver wire of the electrode may fully contact internal electrode solution, but also to avoid electrode contamination resulting from too much internal electrode solution). […]

[2] = 10 mg/kg i.p. once daily for 7 days, 0.7% glacial acetic acid 15 min after last injection, 10 mice

T1 sequence (P35499 whole entry): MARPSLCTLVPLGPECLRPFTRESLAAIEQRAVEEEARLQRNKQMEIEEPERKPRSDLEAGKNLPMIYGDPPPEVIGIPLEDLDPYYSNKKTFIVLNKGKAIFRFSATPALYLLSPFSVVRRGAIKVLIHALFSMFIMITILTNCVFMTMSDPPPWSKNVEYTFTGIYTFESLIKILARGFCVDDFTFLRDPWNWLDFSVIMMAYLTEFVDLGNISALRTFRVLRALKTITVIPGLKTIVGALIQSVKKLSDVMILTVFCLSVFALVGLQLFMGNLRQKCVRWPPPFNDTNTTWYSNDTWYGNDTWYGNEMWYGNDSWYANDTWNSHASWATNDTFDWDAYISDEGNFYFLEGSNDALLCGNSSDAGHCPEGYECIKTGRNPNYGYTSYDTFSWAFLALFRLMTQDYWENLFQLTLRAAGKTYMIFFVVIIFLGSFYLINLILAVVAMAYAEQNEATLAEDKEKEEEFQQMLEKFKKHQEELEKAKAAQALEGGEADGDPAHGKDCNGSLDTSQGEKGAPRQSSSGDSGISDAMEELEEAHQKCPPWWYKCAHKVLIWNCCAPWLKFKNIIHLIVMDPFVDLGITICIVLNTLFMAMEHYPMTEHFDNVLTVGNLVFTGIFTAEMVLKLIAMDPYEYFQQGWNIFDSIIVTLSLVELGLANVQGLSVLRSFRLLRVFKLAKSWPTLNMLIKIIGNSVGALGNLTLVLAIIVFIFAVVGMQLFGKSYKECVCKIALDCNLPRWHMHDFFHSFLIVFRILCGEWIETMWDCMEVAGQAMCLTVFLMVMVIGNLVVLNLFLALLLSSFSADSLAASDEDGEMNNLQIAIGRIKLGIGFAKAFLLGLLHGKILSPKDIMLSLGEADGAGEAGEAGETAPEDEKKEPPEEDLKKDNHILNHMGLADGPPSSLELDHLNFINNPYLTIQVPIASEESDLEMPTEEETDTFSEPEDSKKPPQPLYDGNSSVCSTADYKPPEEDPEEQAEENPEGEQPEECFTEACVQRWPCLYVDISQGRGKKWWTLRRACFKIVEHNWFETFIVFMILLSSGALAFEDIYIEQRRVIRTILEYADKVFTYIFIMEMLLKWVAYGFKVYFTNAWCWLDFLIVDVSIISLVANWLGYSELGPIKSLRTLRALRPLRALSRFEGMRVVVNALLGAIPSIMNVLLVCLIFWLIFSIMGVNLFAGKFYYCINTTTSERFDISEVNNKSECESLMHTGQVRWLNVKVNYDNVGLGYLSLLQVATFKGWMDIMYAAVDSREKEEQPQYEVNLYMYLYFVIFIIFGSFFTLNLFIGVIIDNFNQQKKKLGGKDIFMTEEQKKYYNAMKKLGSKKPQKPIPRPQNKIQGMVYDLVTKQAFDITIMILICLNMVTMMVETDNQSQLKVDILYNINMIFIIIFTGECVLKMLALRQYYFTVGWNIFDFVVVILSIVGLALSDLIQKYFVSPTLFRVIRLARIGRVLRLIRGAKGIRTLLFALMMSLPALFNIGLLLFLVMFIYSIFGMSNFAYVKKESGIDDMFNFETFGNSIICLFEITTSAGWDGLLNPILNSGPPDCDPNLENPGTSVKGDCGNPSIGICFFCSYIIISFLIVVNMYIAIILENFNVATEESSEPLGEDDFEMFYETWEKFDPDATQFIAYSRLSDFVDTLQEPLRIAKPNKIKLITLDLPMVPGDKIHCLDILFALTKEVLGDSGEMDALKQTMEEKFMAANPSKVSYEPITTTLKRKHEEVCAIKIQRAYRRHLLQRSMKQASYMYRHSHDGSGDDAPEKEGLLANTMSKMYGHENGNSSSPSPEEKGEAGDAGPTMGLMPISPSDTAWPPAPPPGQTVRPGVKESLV

**Q.** Which Number of writhing [1, 2] does the source give for `CSCC[C@@H]1NC(=O)CNC(=O)[C@H](CCC(=O)O)NC(=O)[C@@H]2CSSC[C@H](NC(=O)[C@H](Cc3ccc(O)cc3)NC(C)=O)C(=O)N[C@@H](CCC(N)=O)C(=O)N[C@@H](CCCCN)C(=O)N[C@@H](Cc3ccccc3)C(=O)N[C@@H](CC(C)C)C(=O)N[C@@H](C)C(=O)N3CCC[C@H]3C(=O)N[C@H]3CSSC[C@H](NC(=O)[C@H](CCC(=O)O)NC1=O)C(=O)N[C@@H](CCCCN)C(=O)N[C@@H](CC(C)C)C(=O)N[C@@H](Cc1c[nH]c4ccccc14)C(=O)N[C@H](C(=O)N[C@@H](CCCCN)C(=O)N[C@@H](CCCCN)C(=O)N[C@@H](CCCCN)C(=O)N[C@@H](CC(C)C)C(=O)N[C@@H](Cc1c[nH]c4ccccc14)C(N)=O)CSSC[C@H](NC(=O)[C@H](CCCCN)NC(=O)[C@H](CCCNC(=N)N)NC(=O)[C@H](CCC(=O)O)NC(=O)[C@H](CO)NC(=O)[C@H](CC(=O)O)NC3=O)C(=O)N2` [PPN-01] (Ac-YCQKFLAPCDSERKCCEGMECKLWCKKKLW-NH2; disulfide 2-16, 9-21, 15-25) here?
**A.** 14.4 times/15 min

**Q.** What about the “Time of first writhing” value [1, 2] of the same compound?
**A.** 4.15 min

**Q.** What about the “analgesic effect on the mouse acetate acid writhing model” value ([1]; 10 mg/kg i.p., 7 days, compared with saline group) of the same compound?
**A.** certain analgesic effect

**Q.** What about the “inhibition effect on Nav1.4 overexpressing HEK293 cells” value (Nav1.4) of the same compound?
**A.** no significant inhibition effect

From patent US20260042802A1, “POLYPEPTIDE AND USE THEREOF” (priority 2024, published 2026)
